Reference: patent publication US20240269304A1, “BCL-XL INHIBITOR ANTIBODY-DRUG CONJUGATES AND METHODS OF USE THEREOF” (Novartis AG, priority 2020, published 2024)
Like-named read-outs stand apart in the source and are kept apart here.

Key:
[1] = test system: H1650 human non-small cell lung carcinoma (NSCLC) model; experiment: In vivo efficacy of EGFR1-Bcl-xL inhibitor ADCs with different linker payloads in combination with docetaxel, H1650 xenografts (Example 16); parameters: species or system female SCID mice; details: 7.5 mg/kg i.v. once + docetaxel 7.5 mg/kg iv 24 h later; for ΔTumor volume (mm^3) D21: mean±SEM; for Statistics 21 vs EGFR-L109A-P1 / Statistics D21 vs Vehicle gp / Statistics D46 vs EGFR-L109A-P1: one way ANOVA post hoc Tukey
Protocol: Tumor growth was monitored regularly post cell inoculation and animals were randomized into treatment groups (n=7) with a mean tumor volume of about 150 mm^3. […] The ADCs were administered intravenously (i.v.) once at the start of treatment at 7.5 mg/kg in combination with 7.5 mg/kg docetaxel (Zentiva: 1 ml/20 mg), which was administered i.v. once 24 h after the ADCs. Doses were adjusted to individual mouse body weights.
As a measure of efficacy, the %T/C value was calculated on day 21 according to:
(Δtumor volume treated/Δtumor volume control)*100 Tumor regression was calculated according to: […]
Where Δtumor volumes represent the mean tumor volume on the evaluation day minus the mean tumor volume at the start of the experiment.

[2] = test system: LOUCY (T-ALL); experiment: CellTiter-Glo viability 72 h, single agent or 1/1 combination, LOUCY (Example 9); format: cell-based; details: single agent or 1/1 combination as labelled
Protocol: (§1) Cell lines were cultured in the media described above at 37° C. in a humidified atmosphere containing 5% CO2. Cells were seeded in 96 well clear bottom plates (96 well clear-bottom, white, Corning reference 3903) and exposed to the payloads or ADCs at single agents or in 1/1 combinations with vincristine, ABT-199 or compound A2 for 72 h (serially diluted; 9 concentrations each, triplicates). Effects of payloads or ADCs on cell viability were assessed after 3 days of incubation at 37° C./5% CO2 by quantification of cellular ATP levels using CellTiter-Glo reagent (Promega Ref: G7571) at 75 μL reagent/well. All the conditions were tested in triplicates. Luminescence was quantified on a multipurpose plate reader. IC50s were calculated using standard four-parametric curve fitting. […] Each experiment was performed at least twice, with results being reproducible.

[3] = test system: MM1S (MM); experiment: CellTiter-Glo viability 72 h, single agent or 1/1 combination, MM1S (Example 9); format: cell-based; details: Homo sapiens, MM1.S, single agent or 1/1 combination as labelled
Protocol: as §1

[4] = test system: ALL-SILL (T-ALL); experiment: CellTiter-Glo viability 72 h, single agent or 1/1 combination, ALL-SIL (Example 9); format: cell-based; details: single agent or 1/1 combination as labelled
Protocol: Cell lines were cultured in the media described above at 37° C. in a humidified atmosphere containing 5% CO2. […] Effects of payloads or ADCs on cell viability were assessed after 3 days of incubation at 37° C./5% CO2 by quantification of cellular ATP levels using CellTiter-Glo reagent (Promega Ref: G7571) at 75 μL reagent/well. All the conditions were tested in triplicates. Luminescence was quantified on a multipurpose plate reader. IC50s were calculated using standard four-parametric curve fitting.

[5] = test system: SUDHL8 (DLBCL); experiment: CellTiter-Glo viability 72 h, single agent or 1/1 combination, SUDHL8 (Example 9); format: cell-based; details: Homo sapiens, SU-DHL-8, single agent or 1/1 combination as labelled
Protocol: as §1

[6] = test system: HPB-ALL (T-ALL); experiment: CellTiter-Glo viability 72 h, single agent or 1/1 combination with vincristine, ABT-199 or Compound A2, HPB-ALL (Example 9); format: cell-based; details: Homo sapiens, HPBALL, single agent or 1/1 combination as labelled
Protocol: as §1

[7] = ADC stability study: % aggregates by SEC after incubation at 37° C. for 168 h; format: physicochemical
Protocol: Size Exclusion Chromatography: Size exclusion chromatography (SEC) was performed for quality control of each ADCs by measuring monomer percentage of the conjugate. The analysis was performed on analytical column Superdex 200 Increase 5/150 GL (GE Healthcare, 28990945) in isocratic conditions 100% PBS pH7.4 (Sigma Life Science, P3813, 10PAK), flow 0.45 mI/min for 12 minutes. The % aggregate fraction of the conjugate sample was quantified based on the peak area absorbance at 280 nm. Its calculation was based on the ratio between the high molecular weight eluent at 280 nm divided by the sum of peak area absorbance at the same wavelength of the high molecular weight and monomeric eluents multiplied by 100.
Characterization of the exemplary ADCs is summarized in Table 13 (coupling, LC-MS method, OAR, aggregation status, ADO stability and yield). The average OAR values were determined using the above LC-MS methods and the percentage of aggregates was measured by size exclusion chromatography (SEC) during the quality control of the ADO and after the stability study (incubation at 37° C. for 168 h).

[8] = test system: HCC1569 cells; experiment: CellTiterGlo (CTG) cell viability, 120 h, HCC1569, single agent or with 10 nM Paclitaxel; format: cell-based
Protocol: HCC1569 cells were cultivated in RPMI supplemented with 10% heat inactivated fetal bovine serum, penicillin (100 IU/ml), streptomycin (100 μg/ml) and L-glutamine (2 mM). Cell lines were cultured at 37° C. in a humidified atmosphere containing 5% 002. […] Effects of ADCs on cell viability were assessed after 5 days of incubation at 37° C./5% CO2 by quantification of cellular ATP levels using CellTiterGlo at 75 μL reagent/well. All the conditions were tested in triplicates. Luminescence was quantified on a multipurpose plate reader. IC50s were calculated using standard four-parametric curve fitting.

[9] = mean, read-out: LOUCY (T-ALL) IC50 mean
[10] = n1, read-out: LOUCY (T-ALL) IC50 n1
[11] = n2, read-out: LOUCY (T-ALL) IC50 n2
[12] = mean, read-out: ALL-SILL (T-ALL) IC50 mean
[13] = n1, read-out: ALL-SILL (T-ALL) IC50 n1
[14] = n2, read-out: ALL-SILL (T-ALL) IC50 n2
[15] = mean, read-out: HPB-ALL (T-ALL) IC50 mean
[16] = n1, read-out: HPB-ALL (T-ALL) IC50 n1
[17] = n2, read-out: HPB-ALL (T-ALL) IC50 n2

Cc1c(Nc2nc3ccccc3s2)nnc2c1CCCN2c1ccc(-c2cnn(CC34CC5(C)CC(C)(C3)CC(OCCN(CC[C@H](O)CO)C(=O)OCc3ccc(NC(=O)[C@H](CCCNC(N)=O)NC(=O)[C@@H](NC(=O)CCOCCN6C(=O)CC(C)C6=O)C(C)C)cc3CN(C)C(=O)CCOCCOCCOCCOCCOCCOCCOCCOCCOCCOCCOCCOCCOCCOCCOCCOCCOCCOCCOCCOCCOCCOCCOCCOCCOCCC(=O)O)(C5)C4)c2C)c(C(=O)O)n1 (mixture of isomers) [EGFR1-L11C-P19]
Regression (%) ([1]; day 21): −35%
ΔTumor volume (mm^3) D21 ([1]; day 21): −52 ± 21 mm^3
Statistics 21 vs EGFR-L109A-P1 [1]: P < 0.05
Statistics D21 vs Vehicle gp [1]: P < 0.05
Statistics D46 vs EGFR-L109A-P1 [1]: P < 0.05

CC1(C)CCC(CN2CCN(c3ccc(C(=O)NS(=O)(=O)c4ccc(NCC5CCOCC5)c([N+](=O)[O-])c4)c(Oc4cnc5[nH]ccc5c4)c3)CC2)=C(c2ccc(Cl)cc2)C1 [ABT-199, reference compound]
IC50 [2, 9]: 24.5 nM
IC50 [2, 10]: 19 nM
IC50 [2, 11]: 30 nM
IC50 ([3]; mean, read-out: MM1S (MM) IC50 mean): 4540 nM
IC50 ([3]; n1, read-out: MM1S (MM) IC50 n1): 4470 nM
IC50 ([3]; n2, read-out: MM1S (MM) IC50 n2): 4600 nM
IC50 [4, 12]: 224 nM
IC50 [4, 13]: 234 nM
IC50 [4, 14]: 213 nM
IC50 ([5]; mean, read-out: SUDHL8 (DLBCL) IC50 mean): 6140 nM
IC50 ([5]; n1, read-out: SUDHL8 (DLBCL) IC50 n1): 4820 nM
IC50 ([5]; n2, read-out: SUDHL8 (DLBCL) IC50 n2): 7460 nM
IC50 [6, 15]: 9060 nM
IC50 [6, 16]: 8920 nM
IC50 [6, 17]: 9210 nM

CNCCOCCOCCNC(=O)OC[C@@H]1[C@@H]2CCc3nnn(CCOCCOCCOCC(=O)N[C@H](C(=O)N[C@@H](CCCNC(N)=O)C(=O)Nc4ccc(COC(=O)N(C)CC#Cc5ccc(OCCCc6sc(N(C)c7cc(C)c(Nc8nc9ccccc9s8)nn7)nc6C(=O)O)c(F)c5)cc4)C(C)C)c3CC[C@@H]21 [Ab T - L23C-P7]
Stab w1 +37° C. % Agg (by SEC) [7]: 4%
IC50 ([8]; read-out: HCC1569 CTG 120 h IC50 nM + Paclitaxel 10 nM Mean N1 and N2, in the presence of 10 nM Paclitaxel, mean): 0.213 nM
IC50 ([8]; read-out: HCC1569 CTG 120 h IC50 nM + Paclitaxel 10 nM N1, in the presence of 10 nM Paclitaxel, N1): 0.287 nM
IC50 ([8]; read-out: HCC1569 CTG 120 h IC50 nM + Paclitaxel 10 nM N2, in the presence of 10 nM Paclitaxel, N2): 0.139 nM
IC50 ([8]; read-out: HCC1569 CTG 120 h IC50 nM Mean N1 and N2, single agent, mean): > 300 nM
IC50 ([8]; read-out: HCC1569 CTG 120 h IC50 nM N1, single agent, N1): > 300 nM
IC50 ([8]; read-out: HCC1569 CTG 120 h IC50 nM N2, single agent, N2): > 300 nM

Cc1c(Nc2nc3ccccc3s2)nnc2c1CCCN2c1ccc(-c2cnn(CC34CC5(C)CC(C)(C3)CC(OCC[N+]3(Cc6ccc(NC(=O)[C@H](CCCNC(N)=O)NC(=O)[C@@H](NC(=O)CCOCCN7C(=O)CC(C)C7=O)C(C)C)cc6CN(C)C(=O)CCOCCOCCOCCOCCOCCOCCOCCOCCOCCOCCOCCOCCOCCOCCOCCOCCOCCOCCOCCOCCOCCOCCOCCOCCOCCC(=O)O)CCCC3)(C5)C4)c2C)c(C(=O)O)n1 (stereo partly drawn) [EGFR1-L11A-P21]
Regression (%) ([1]; day 21): −8%
ΔTumor volume (mm^3) D21 ([1]; day 21): −16 ± 20 mm^3
Statistics D21 vs Vehicle gp [1]: P < 0.05
Statistics D46 vs EGFR-L109A-P1 [1]: P < 0.05

Cc1c(Nc2nc3ccccc3s2)nnc2c1CCCN2c1ccc(-c2cnn(CC34CC5(C)CC(C)(C3)CC(OCC[N+](C)(C)Cc3ccc(NC(=O)[C@H](CCCNC(N)=O)NC(=O)[C@@H](NC(=O)CCOCCN6C(=O)CC(C)C6=O)C(C)C)cc3CN(C)C(=O)CCOCCOCCOCCOCCOCCOCCOCCOCCOCCOCCOCCOCCOCCOCCOCCOCCOCCOCCOCCOCCOCCOCCOCCOCCOCCC(=O)O)(C5)C4)c2C)c(C(=O)O)n1 (stereo partly drawn) [EGFR1-L11A-P27]
T/C (%) D21 ([1]; day 21): 3%
ΔTumor volume (mm^3) D21 ([1]; day 21): 14 ± 18 mm^3
Statistics D21 vs Vehicle gp [1]: P < 0.05

Cc1c(Nc2nc3ccccc3s2)nnc2c1CCCN2c1ccc(-c2cnn(CC34CC5(C)CC(C)(C3)CC(OCCN(CCCO)C(=O)OCc3ccc(NC(=O)[C@H](CCCNC(N)=O)NC(=O)[C@@H](NC(=O)CCOCCN6C(=O)CC(C)C6=O)C(C)C)cc3CN(C)C(=O)CCOCCOCCOCCOCCOCCOCCOCCOCCOCCOCCOCCOCCOCCOCCOCCOCCOCCOCCOCCOCCOCCOCCOCCOCCOCCC(=O)O)(C5)C4)c2C)c(C(=O)O)n1 (stereo partly drawn) [EGFR1-L11C-P25]
Regression (%) ([1]; day 21): −50%
ΔTumor volume (mm^3) D21 ([1]; day 21): −76 ± 17 mm^3
Statistics 21 vs EGFR-L109A-P1 [1]: P < 0.05
Statistics D21 vs Vehicle gp [1]: P < 0.05
Statistics D46 vs EGFR-L109A-P1 [1]: P < 0.05

CC[C@]1(O)C[C@H]2CN(CCc3c([nH]c4ccccc34)[C@@](C(=O)OC)(c3cc4c(cc3OC)N(C=O)[C@H]3[C@@](O)(C(=O)OC)[C@H](OC(C)=O)[C@]5(CC)C=CCN6CC[C@]43[C@@H]65)C2)C1 [Vincristine, vincristine]
IC50 [2, 9]: 0.73 nM
IC50 [2, 10]: 0.96 nM
IC50 [2, 11]: 0.5 nM
IC50 [4, 12]: 0.089 nM
IC50 [4, 13]: 0.094 nM
IC50 [4, 14]: 0.083 nM
IC50 [6, 15]: 0.705 nM
IC50 [6, 16]: 0.68 nM
IC50 [6, 17]: 0.73 nM
